Entries after “also recorded” stand apart in the source; their conditions may differ. Read-outs that look alike come from different tables or passages of the source.
Key:
[1] = biological target: T1, TLK2 (Homo sapiens, UniProt Q86UE8); assay: KiNativ in-cell kinase binding, TLK2; settings: SH-SY5Y cells
T1 construct: endogenous in cells; host or cells: SH-SY5Y
Source text: (§1) As KINOMEscan is an in vitro assay, and as different cell types have variable kinase expression profiles we sought to determine the kinase binding profile in our SH-SY5Y TFEB-relocalization cell model. […] Bound kinases were pulled down and analyzed by mass spectrometry to determine the in situ kinase binding profile for each compound.

[2] = biological target: cellular kinases of SH-SY5Y cells (Homo sapiens, UniProt O75716); assay: biochemical; type: binding; settings: 2µM; SH-SY5Y cells; Labeling Site Lys2; DLKPTNILLGDEGQPVLMDLGSMNQACIHVEGSR; read-out: KiNativ in-cell binding, % Inhibition, STK16
Sequence of cellular kinases of SH-SY5Y cells (Homo sapiens, UniProt O75716) (O75716 whole entry): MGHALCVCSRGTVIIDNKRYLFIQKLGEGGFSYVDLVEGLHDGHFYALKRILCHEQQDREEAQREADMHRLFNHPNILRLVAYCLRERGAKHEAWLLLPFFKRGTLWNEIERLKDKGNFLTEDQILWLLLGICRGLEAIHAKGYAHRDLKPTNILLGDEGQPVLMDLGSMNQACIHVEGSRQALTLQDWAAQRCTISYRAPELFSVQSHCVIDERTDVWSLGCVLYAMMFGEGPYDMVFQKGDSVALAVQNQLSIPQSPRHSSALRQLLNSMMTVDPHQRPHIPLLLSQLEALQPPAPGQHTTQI
Source text: as §1

[3] = biological target: cellular kinases of SH-SY5Y cells (Homo sapiens, UniProt P10398); assay: biochemical; type: binding; settings: 2µM; SH-SY5Y cells; Labeling Site Lys2; DLKSNNIFLHEGLTVK; read-out: KiNativ in-cell binding, % Inhibition, ARAF
Sequence of cellular kinases of SH-SY5Y cells (Homo sapiens, UniProt P10398) (P10398 whole entry): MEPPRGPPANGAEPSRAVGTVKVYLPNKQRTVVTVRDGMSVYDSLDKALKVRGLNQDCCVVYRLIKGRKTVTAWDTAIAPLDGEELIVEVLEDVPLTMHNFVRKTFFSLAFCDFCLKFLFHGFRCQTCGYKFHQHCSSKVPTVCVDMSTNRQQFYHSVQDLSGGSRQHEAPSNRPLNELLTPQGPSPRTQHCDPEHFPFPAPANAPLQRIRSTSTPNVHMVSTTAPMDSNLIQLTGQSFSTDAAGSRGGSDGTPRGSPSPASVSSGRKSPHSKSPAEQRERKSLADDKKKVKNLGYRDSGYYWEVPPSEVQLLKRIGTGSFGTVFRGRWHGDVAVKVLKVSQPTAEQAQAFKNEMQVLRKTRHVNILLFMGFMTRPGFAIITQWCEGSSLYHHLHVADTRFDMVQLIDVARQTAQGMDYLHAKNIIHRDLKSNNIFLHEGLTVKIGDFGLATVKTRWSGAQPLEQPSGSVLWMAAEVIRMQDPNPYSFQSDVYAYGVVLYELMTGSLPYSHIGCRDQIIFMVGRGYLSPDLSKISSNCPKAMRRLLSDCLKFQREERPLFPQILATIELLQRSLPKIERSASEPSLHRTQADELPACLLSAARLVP
Source text: as §1

[4] = biological target: cellular kinases of SH-SY5Y cells (Homo sapiens, UniProt P19784); assay: biochemical; type: binding; settings: 2µM; SH-SY5Y cells; labeling site Lys2; peptide DVKPHNVMIDHQQK
Sequence of cellular kinases of SH-SY5Y cells (Homo sapiens, UniProt P19784) (P19784 whole entry): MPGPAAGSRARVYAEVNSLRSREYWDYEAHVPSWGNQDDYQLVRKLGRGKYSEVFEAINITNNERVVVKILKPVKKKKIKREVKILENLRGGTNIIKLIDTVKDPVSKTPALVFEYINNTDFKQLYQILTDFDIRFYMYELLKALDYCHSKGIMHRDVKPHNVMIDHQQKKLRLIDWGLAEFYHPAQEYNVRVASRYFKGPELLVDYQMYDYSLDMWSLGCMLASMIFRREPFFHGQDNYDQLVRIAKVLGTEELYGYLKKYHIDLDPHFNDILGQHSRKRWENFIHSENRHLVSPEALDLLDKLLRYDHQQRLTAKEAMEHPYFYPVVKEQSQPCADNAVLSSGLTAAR
Source text: as §1

[5] = biological target: cellular kinases of SH-SY5Y cells (Homo sapiens, UniProt P29317); assay: biochemical; type: binding; settings: 2µM; SH-SY5Y cells; Labeling Site Activation Loop; VLEDDPEATYTTSGGKIPIR; read-out: KiNativ in-cell binding, % Inhibition, EphA2
Sequence of cellular kinases of SH-SY5Y cells (Homo sapiens, UniProt P29317) (P29317 24-976): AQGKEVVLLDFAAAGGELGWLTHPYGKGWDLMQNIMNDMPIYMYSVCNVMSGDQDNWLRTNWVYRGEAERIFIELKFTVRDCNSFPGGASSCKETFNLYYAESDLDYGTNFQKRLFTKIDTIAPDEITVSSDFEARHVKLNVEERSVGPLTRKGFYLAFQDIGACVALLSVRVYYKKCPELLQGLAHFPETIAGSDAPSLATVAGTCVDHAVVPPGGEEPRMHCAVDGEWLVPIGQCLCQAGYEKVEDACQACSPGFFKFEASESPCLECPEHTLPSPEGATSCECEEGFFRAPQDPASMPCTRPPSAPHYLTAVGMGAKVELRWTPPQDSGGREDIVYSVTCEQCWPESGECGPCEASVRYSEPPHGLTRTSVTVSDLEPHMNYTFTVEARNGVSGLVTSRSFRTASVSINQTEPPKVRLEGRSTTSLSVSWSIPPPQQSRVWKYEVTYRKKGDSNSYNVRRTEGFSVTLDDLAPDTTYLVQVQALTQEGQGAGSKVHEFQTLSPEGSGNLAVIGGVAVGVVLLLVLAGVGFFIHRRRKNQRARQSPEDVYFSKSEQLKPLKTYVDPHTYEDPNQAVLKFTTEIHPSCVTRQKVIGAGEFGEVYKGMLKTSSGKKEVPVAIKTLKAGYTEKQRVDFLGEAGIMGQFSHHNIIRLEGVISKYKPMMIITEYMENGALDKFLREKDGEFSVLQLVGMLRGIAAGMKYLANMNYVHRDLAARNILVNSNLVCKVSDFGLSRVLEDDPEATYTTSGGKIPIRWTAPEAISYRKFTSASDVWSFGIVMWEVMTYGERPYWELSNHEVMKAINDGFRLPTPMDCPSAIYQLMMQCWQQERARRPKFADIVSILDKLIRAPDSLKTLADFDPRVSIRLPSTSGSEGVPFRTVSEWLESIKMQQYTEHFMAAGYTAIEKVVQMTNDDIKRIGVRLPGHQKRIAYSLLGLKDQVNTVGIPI
Source text: as §1

[6] = biological target: T2, cellular kinases of SH-SY5Y cells (Homo sapiens, UniProt P45985); assay: biochemical; type: binding; settings: 2µM, SH-SY5Y cells; for inhibition at 2 µM: read-out: KiNativ in-cell binding, % Inhibition, MAP2K4
T2 sequence (P45985 1-399): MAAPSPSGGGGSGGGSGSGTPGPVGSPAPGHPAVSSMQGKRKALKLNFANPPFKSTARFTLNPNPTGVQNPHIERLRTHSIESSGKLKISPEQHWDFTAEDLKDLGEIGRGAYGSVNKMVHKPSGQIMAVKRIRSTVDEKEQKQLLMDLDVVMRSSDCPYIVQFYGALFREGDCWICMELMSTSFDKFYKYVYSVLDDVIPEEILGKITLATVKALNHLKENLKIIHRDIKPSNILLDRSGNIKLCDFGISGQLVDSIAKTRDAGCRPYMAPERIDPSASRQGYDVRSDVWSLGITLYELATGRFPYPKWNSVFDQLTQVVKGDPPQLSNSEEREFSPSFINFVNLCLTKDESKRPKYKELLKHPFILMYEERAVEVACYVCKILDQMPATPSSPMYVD
Source text: as §1

[7] = biological target: T3, cellular kinases of SH-SY5Y cells (Homo sapiens, UniProt P51957); assay: biochemical; type: binding; settings: 2µM; SH-SY5Y cells; Labeling Site Lys2; DLKTQNVFLTR; read-out: KiNativ in-cell binding, % Inhibition, NEK4
T3 construct: endogenous in cells; host or cells: SH-SY5Y
Source text: as §1

[8] = biological target: cellular kinases of SH-SY5Y cells (Homo sapiens, UniProt Q15349); assay: biochemical; type: binding; settings: 2µM; SH-SY5Y cells; labeling site Lys2; peptide DLKPENILLDEEGHIKITDFGLSK
Source text: as §1

[9] = biological target: cellular kinases of SH-SY5Y cells (Homo sapiens, UniProt Q7KZI7); assay: biochemical; type: binding; settings: 2µM; SH-SY5Y cells; Labeling Site Lys1; EVAVKIIDKTQLNSSSLQK; read-out: KiNativ in-cell binding, % Inhibition, MARK2
Sequence of cellular kinases of SH-SY5Y cells (Homo sapiens, UniProt Q7KZI7) (Q7KZI7 whole entry): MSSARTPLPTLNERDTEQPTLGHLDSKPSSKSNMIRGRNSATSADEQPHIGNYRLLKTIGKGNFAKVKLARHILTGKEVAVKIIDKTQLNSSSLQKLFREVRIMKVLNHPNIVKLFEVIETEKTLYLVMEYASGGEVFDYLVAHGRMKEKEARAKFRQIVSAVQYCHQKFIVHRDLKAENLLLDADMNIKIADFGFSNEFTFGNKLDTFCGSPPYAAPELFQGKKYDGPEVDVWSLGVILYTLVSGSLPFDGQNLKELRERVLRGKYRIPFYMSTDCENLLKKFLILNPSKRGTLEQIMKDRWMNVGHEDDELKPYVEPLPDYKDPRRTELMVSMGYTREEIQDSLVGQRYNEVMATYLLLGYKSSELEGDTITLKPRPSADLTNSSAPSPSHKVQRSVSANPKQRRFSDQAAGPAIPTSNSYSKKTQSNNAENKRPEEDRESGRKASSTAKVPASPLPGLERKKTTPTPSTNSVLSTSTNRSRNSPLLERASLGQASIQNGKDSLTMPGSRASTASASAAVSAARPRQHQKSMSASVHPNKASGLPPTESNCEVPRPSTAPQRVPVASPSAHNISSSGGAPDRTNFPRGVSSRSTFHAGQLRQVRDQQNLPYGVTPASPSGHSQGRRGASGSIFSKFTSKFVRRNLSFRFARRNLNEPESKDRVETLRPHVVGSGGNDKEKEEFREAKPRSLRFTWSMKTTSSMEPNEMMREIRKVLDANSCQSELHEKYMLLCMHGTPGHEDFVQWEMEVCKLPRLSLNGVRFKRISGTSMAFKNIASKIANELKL
Source text: as §1

[10] = tested on: TFE3; assay: TFE3 translocation in CRISPRi PRKD2 or PRKD3 knockdown SH-SY5Y cells; type: cell-based; settings: SH-SY5Y dCas9-KRAB, Scr, PRKD2 or PRKD3 targeting guides, increasing concentrations
[11] = biological target: kinases (KINOMEscan panel) (Homo sapiens, UniProt P16234); parameters: method as in original PKIS2 published data; settings: PDGFRA; Published KINOMEscan; ref original PKIS2 published data; cited from earlier work
Sequence of kinases (KINOMEscan panel) (Homo sapiens, UniProt P16234) (P16234 24-1089): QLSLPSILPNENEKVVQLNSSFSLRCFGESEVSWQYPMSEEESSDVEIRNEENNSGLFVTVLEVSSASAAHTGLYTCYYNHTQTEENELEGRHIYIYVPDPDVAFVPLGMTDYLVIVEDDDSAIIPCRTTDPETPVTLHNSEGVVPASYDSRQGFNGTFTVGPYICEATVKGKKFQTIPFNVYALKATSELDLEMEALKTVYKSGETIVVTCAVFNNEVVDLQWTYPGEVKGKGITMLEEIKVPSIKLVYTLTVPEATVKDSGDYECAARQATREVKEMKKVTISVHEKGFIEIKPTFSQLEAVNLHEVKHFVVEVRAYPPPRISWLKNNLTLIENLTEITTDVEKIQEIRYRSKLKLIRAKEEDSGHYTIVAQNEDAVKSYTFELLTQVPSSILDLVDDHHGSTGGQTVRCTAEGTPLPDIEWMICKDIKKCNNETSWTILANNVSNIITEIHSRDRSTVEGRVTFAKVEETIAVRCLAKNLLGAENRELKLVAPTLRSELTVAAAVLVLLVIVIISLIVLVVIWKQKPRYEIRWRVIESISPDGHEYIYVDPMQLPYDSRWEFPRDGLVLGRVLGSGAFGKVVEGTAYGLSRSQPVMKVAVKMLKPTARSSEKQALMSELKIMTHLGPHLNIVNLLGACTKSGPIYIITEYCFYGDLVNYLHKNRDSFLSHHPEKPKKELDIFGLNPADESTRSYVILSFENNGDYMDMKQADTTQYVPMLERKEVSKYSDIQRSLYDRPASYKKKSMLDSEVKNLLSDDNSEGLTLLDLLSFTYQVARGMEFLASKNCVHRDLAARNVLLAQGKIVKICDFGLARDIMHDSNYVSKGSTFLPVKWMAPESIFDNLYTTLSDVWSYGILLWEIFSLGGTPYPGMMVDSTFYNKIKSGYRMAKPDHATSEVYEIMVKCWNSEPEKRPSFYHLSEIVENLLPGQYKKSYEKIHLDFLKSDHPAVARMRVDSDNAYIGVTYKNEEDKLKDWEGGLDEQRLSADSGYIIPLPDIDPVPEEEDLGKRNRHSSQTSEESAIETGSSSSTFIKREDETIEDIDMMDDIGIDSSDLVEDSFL

[12] = biological target: T4, kinases (KINOMEscan panel) (Homo sapiens, UniProt P54762); parameters: method as in original PKIS2 published data; settings: kinase EPHB1; Published KINOMEscan; ref original PKIS2 published data; cited from earlier work
T4 sequence (P54762 18-984): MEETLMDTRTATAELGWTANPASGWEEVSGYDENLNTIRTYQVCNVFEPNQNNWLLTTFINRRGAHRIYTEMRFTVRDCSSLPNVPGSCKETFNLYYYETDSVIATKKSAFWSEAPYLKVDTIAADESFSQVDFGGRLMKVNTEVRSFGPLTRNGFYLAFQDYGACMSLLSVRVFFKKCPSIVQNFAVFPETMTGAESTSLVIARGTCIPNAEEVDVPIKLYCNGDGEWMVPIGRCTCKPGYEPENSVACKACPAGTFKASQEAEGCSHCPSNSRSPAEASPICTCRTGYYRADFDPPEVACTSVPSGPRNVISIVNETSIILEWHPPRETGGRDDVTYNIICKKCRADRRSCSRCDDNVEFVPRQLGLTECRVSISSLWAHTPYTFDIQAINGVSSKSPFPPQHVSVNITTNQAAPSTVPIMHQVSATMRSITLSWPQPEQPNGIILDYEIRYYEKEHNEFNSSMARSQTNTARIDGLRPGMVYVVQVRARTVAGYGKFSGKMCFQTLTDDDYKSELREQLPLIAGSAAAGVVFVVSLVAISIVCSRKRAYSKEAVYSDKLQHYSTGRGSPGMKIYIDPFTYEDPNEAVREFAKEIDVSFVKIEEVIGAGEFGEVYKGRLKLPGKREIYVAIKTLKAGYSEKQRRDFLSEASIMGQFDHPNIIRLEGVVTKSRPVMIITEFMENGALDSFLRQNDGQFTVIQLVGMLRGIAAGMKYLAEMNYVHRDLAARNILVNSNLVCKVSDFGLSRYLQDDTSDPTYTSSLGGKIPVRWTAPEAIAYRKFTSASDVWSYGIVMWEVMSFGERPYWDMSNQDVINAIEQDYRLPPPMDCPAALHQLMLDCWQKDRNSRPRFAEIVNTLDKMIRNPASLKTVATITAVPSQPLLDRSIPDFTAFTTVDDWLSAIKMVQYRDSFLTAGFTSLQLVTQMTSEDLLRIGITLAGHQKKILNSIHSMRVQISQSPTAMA

T1 sequence (Q86UE8 whole entry): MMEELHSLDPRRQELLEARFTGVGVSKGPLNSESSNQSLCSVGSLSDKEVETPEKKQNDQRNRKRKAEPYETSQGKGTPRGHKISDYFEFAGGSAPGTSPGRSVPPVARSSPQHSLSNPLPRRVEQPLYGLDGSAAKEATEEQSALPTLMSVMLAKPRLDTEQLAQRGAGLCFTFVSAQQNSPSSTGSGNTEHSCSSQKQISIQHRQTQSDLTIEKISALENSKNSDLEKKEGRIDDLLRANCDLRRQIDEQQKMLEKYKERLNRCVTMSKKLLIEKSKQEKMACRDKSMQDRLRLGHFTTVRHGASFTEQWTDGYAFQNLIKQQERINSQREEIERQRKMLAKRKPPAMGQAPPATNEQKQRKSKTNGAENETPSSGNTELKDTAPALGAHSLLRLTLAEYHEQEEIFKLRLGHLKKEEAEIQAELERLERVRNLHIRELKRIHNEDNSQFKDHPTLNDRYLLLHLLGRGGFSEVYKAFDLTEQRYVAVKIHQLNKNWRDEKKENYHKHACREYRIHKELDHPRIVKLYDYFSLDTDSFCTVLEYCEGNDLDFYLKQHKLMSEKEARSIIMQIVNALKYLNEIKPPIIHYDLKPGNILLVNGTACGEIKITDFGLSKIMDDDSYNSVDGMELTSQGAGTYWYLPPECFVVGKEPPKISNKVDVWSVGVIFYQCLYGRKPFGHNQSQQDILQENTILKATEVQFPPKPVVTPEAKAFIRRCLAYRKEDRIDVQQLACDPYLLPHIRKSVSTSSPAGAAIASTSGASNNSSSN

SMILES	inhibition at 2 µM ([1]; Labeling Site Lys1, YVAVKIHQLNK) [%]	inhibition at 2 µM ([1]; Labeling Site Lys2, YLNEIKPPIIHYDLKPGNILLVNGTACGEIK) [%]	inhibition at 2 µM [2] [%]	inhibition at 2 µM [3] [%]	KiNativ in-cell binding, CSNK2A2 [4]	inhibition at 2 µM [5] [%]	inhibition at 2 µM ([6]; Labeling Site Activation Loop, LCDFGISGQLVDSIAKTR) [%]	inhibition at 2 µM ([6]; Labeling Site Lys2, DIKPSNILLDR) [%]	KiNativ in-cell binding, MAP2K4 ([6]; labeling site Lys1, peptide MVHKPSGQIMAVKR)	inhibition at 2 µM [7] [%]	KiNativ in-cell binding, RSK3 domain1 [8]	inhibition at 2 µM [9] [%]	TFE3 nuclear translocation in response to compound after PRKD knockdown (in words) [10]	KINOMEscan PDGFRA [11]	KINOMEscan EPHB1 [12]
Cc1cccc(-c2nc(Nc3ccc4ncsc4c3)c3ccccc3n2)n1 [NK140]	52.7	50	-42.2	28.7	-67.6	1.2	-2.3	4	26.1	-36	-68.0	10.5	no increased activity in the TFE3 translocation assay; also recorded: not altered by knockdown of PRKD	–	–
Cc1cccc(-c2nc(Nc3ccncc3)c3ccccc3n2)n1 [NK215]	–	–	–	–	–	–	–	–	–	–	–	–	–	0	3
